Measured values published in publication PMC8049364, “Quantification of Macrophage-Driven Inflammation During Myocardial Infarction with ^18F-LW223, a Novel TSPO Radiotracer with Binding Independent of the rs6971 Human Polymorphism” (Journal of Nuclear Medicine, 2021).

Tests used:
TSPO = target: T1, TSPO (Rattus norvegicus, UniProt P16257); test: PET/CT imaging and 2-tissue-compartment kinetic modelling in naïve and PK11195-blocked rats; format: in vivo; design: K1 (2T analysis), mean / k2 (2T analysis), mean / k3 (2T analysis), mean / k4 (2T analysis), mean / VT (2T analysis), mean: unit not given here
T1 construct: Thirty-three adult male Sprague–Dawley rats; from tissue; host or cells: living adult male Sprague-Dawley rats; heart, LV anterior wall, lung and brain VOIs
Procedure: Thirty-two PET scans were performed with ^18F-LW223 (17.8 ± 1.5 MBq, intravenous bolus, mean ± SEM). Naïve and MI rat scans were acquired immediately after intravenous bolus injection of ^18F-LW223. […] Dosimetry studies were conducted using mice and 240-min PET scans.
A commercially available system (Twilite2; Swisstrace) was used for the measurement of blood radioactivity as previously described ([17]). The whole-blood arterial input function measured by the automatic blood sampler was corrected for the plasma–to–whole-blood ratio and for metabolism in vivo.
Data were acquired using a PET/CT small-animal scanner (nanoPET/CT; Mediso). A CT scan (semicircular full trajectory, maximum field of view, 480 projections, 50 kVp, 300 ms, and 1:4 binning) was acquired for attenuation correction. Immediately after radiotracer administration, a 120- or 240-min emission scan was obtained using 3-dimensional 1:5 mode. For rat studies, rebinning was 18 × 10 s, 2 × 30 s, 1 × 60 s, 2 × 2 min, 10 × 5 min, 6 × 10 min, or 18 × 10 min. For mouse studies, rebinning was 4 × 5 min, 4 × 10 min, or 9 × 20 min. Rat PET studies were reconstructed using the iterative Tera-Tomo 3-dimensional reconstruction algorithm (Mediso), which includes point-spread correction, and the following settings: 4 iterations, 6 subsets, full detector model, low regularization, spike filter on, voxel size of 0.4 mm, and 400- to 600-keV energy window. Mouse dosimetry PET data were reconstructed using filtered backprojection, a voxel size of 0.4 mm, and a 400- to 600-keV energy window. All PET data were corrected for randoms, scatter, and attenuation.
Reconstructed scans were imported into PMOD, version 3.8 (PMOD Technologies). Volumes of interest (VOIs) were manually drawn around the brain, heart, and lung using CT images. To sample the infarct area (or an equivalent area in naïve hearts), averaged PET images (0–120 min) were used to place 3 spheric VOIs at the center of the infarct territory within the ventricular wall (1.5 mm^3). […] Time–activity curves were generated, and SUVs were calculated as concentration in the VOI divided by injected dose divided by animal weight. Kinetic modeling was performed using the 2-tissue-compartment model to estimate the kinetic rate constants K1–k4 and the total volume of distribution (VT) in different tissues. Blood volume fraction (VB) was not modeled in this study. Two-tissue-compartment modeling was selected as the preferred model on the basis of a comparison of goodness and robustness of fitting versus several other models (Supplemental Fig. 3; Supplemental Table 2). The binding potential relative to nondisplaceable volume (BPND) was defined as k3/k4 ([19]). The transfer-corrected BPND, termed BPTC, was formulated as follows:Eq. 1 BPTC=k3/k4÷K1,

[1] = Radiometabolite analysis of blood and tissue in naïve rats; format: in vivo, rat; conditions: for Parent fraction: population curve
Procedure: Arterial blood samples were collected at 2, 5, 10, 20, 30, 60, and 120 min after radiotracer injection (69.7 ± 9.1 MBq [mean ± SEM], n = 17 rats), and heart, lung, and brain tissue samples were collected at 60 and 120 min. Blood and tissues were processed as detailed in the supplemental materials.
Invasive Input Function Measurement
Polyethylene catheters (PE50) filled with heparinized saline (20 IU/mL) were inserted into the left femoral artery and vein with the help of a stereomicroscope and securely fastened with ligatures (6-0 silk thread). […]
Radiometabolite Blood and Tissue Processing and Analysis
All blood samples were 1 mL each and manually collected from different animals to generate a population curve, in order to respect total blood volume limits for terminal arterial blood collections in rats. Following blood and tissue collection, all samples were […]
kept on ice until analyzed. Radioactivity in whole blood and plasma, as well as homogenized tissue samples, was assessed using a well-type γ-counter using a 400– 1400 keV window (Perkin Elmer Wizzard2, USA). Plasma samples (400 μl) and tissue samples (500 μl) were processed by acetonitrile denaturation (1:1.4 v/v) and analyzed by HPLC (Ultimate2000, ThermoFisher, UK) on a Luna C18(2) 10×250 mm, 10 μm column (Phenomenex, UK) with acetonitrile/water 70/30 and flow rate of 4 mL/min to estimate the […]
parent fraction. […]

[2] = Brain, Blocked Naive (PK11195, 1mg/kg) n = 3
[3] = Global Heart, Blocked Naive (PK11195, 1mg/kg) n = 3
[4] = LV Anterior Wall, Blocked Naive (PK11195, 1mg/kg) n = 3
[5] = Lung, Blocked Naive (PK11195, 1mg/kg) n = 3

CC[C@@H](C)N(C)C(=O)c1nc2ccccc2c(-c2ccccc2)c1C[18F] [^18F-LW223]
K1 (2T analysis), mean (TSPO; [2]): 0.06
VT (2T analysis), mean (TSPO; [2]): 0.93
k2 (2T analysis), mean (TSPO; [2]): 0.11
k3 (2T analysis), mean (TSPO; [2]): 2.324
k3/k4 (2T analysis), mean (TSPO; [2]): 0.71
k4 (2T analysis), mean (TSPO; [2]): 2.33
K1 (2T analysis), mean (TSPO; Brain, Naive n = 6): 0.14
VT (2T analysis), mean (TSPO; Brain, Naive n = 6): 1.6
k2 (2T analysis), mean (TSPO; Brain, Naive n = 6): 0.18
k3 (2T analysis), mean (TSPO; Brain, Naive n = 6): 0.016
k3/k4 (2T analysis), mean (TSPO; Brain, Naive n = 6): 1.22
k4 (2T analysis), mean (TSPO; Brain, Naive n = 6): 0.01
K1 (2T analysis), mean (TSPO; [3]): 0.19
VT (2T analysis), mean (TSPO; [3]): 4.56
k2 (2T analysis), mean (TSPO; [3]): 0.23
k3 (2T analysis), mean (TSPO; [3]): 0.721
k3/k4 (2T analysis), mean (TSPO; [3]): 4.52
k4 (2T analysis), mean (TSPO; [3]): 0.13
K1 (2T analysis), mean (TSPO; Global Heart, Naive n = 6): 0.58
VT (2T analysis), mean (TSPO; Global Heart, Naive n = 6): 9.93
k2 (2T analysis), mean (TSPO; Global Heart, Naive n = 6): 0.33
k3 (2T analysis), mean (TSPO; Global Heart, Naive n = 6): 0.031
k3/k4 (2T analysis), mean (TSPO; Global Heart, Naive n = 6): 4.77
k4 (2T analysis), mean (TSPO; Global Heart, Naive n = 6): 0.01
K1 (2T analysis), mean (TSPO; [4]): 0.28
VT (2T analysis), mean (TSPO; [4]): 75.25
k2 (2T analysis), mean (TSPO; [4]): 0.08
k3 (2T analysis), mean (TSPO; [4]): 0.855
k3/k4 (2T analysis), mean (TSPO; [4]): 12.64
k4 (2T analysis), mean (TSPO; [4]): 0.23
K1 (2T analysis), mean (TSPO; LV Anterior Wall, Naive n = 6): 0.9
VT (2T analysis), mean (TSPO; LV Anterior Wall, Naive n = 6): 29.95
k2 (2T analysis), mean (TSPO; LV Anterior Wall, Naive n = 6): 0.26
k3 (2T analysis), mean (TSPO; LV Anterior Wall, Naive n = 6): 0.033
k3/k4 (2T analysis), mean (TSPO; LV Anterior Wall, Naive n = 6): 7.99
k4 (2T analysis), mean (TSPO; LV Anterior Wall, Naive n = 6): 0.00
K1 (2T analysis), mean (TSPO; [5]): 0.16
VT (2T analysis), mean (TSPO; [5]): 2.2
k2 (2T analysis), mean (TSPO; [5]): 0.35
k3 (2T analysis), mean (TSPO; [5]): 0.181
k3/k4 (2T analysis), mean (TSPO; [5]): 3.19
k4 (2T analysis), mean (TSPO; [5]): 0.05
K1 (2T analysis), mean (TSPO; Lung, Naive n = 6): 0.94
VT (2T analysis), mean (TSPO; Lung, Naive n = 6): 6.94
k2 (2T analysis), mean (TSPO; Lung, Naive n = 6): 0.32
k3 (2T analysis), mean (TSPO; Lung, Naive n = 6): 0.031
k3/k4 (2T analysis), mean (TSPO; Lung, Naive n = 6): 1.38
k4 (2T analysis), mean (TSPO; Lung, Naive n = 6): 0.02
specificity of in vivo binding to TSPO (TSPO; PK11195 1 mg/kg intravenously, blocking and displacement): blocked and displaced by PK11195
BPTC (TSPO; anterior wall of naïve animals): 10.0 ± 2.4 cm^3/mL/min
excretion routes (TSPO; mice and rats): both the urinary and the hepatobiliary excretion routes
Peak SUV, brain (TSPO; naïve rat): 0.83 ± 0.18 g/mL
SUVpeak, heart (TSPO; rat): 2.5
SUVpeak, lung (TSPO; rat): 4.0
VT in the brain (TSPO; rat): 1.1–2.2 mL/cm^3
Parent fraction ([1]; 2 min): 0.95
Parent fraction ([1]; 5 min): 0.82
Parent fraction ([1]; 10 min): 0.81
Parent fraction ([1]; 20 min): 0.81
Parent fraction ([1]; 30 min): 0.77
Parent fraction ([1]; 120 min): 0.69
radiometabolites in brain, heart, and lung ([1]; rat, 60 and 120 min after administration): less than 12.7%
plasma to whole blood ratio ([1]; used for input function correction): 1.84
